These results are taken from patent US5618795A, “Dibekacin derivatives and arbekacin derivatives active against resistant bacteria, and the production thereof” (Zaidan Hojin Biseibutsu Kagaku Kenkyu Kai, priority 1992, dated 1997).

Data set [1] deals with clinically isolated strains of MRSA. Description: Antibacterial MIC spectra against 50 clinically isolated strains of MRSA. The format is cell-based, methicillin-resistant Staphylococcus aureus. The settings on record: Staphylococcus aureus; for MIC90: 90% of the 50 MRSA strains inhibited, read-out: MIC90. The method, then:
(§1) Minimum growth inhibitory concentrations (MIC) of each of 2"-amino-2"-deoxyarbekacin (Compound Ia), 2"-amino-5,2"-dideoxyarbekacin (Compound Ib), 2"-amino-2"-deoxydibekacin (Compound IIa) and 2"-amino-5,2"-dideoxydibekacin (Compound IIb) against various bacteria (20 strains) and against clinically isolated strains of MRSA (50 strains) were determined by standard serial dilution method on Muller-Hinton's agar medium (as estimated after cultivating at 27° C. for 18 hours), and the test results obtained are shown in TABLE 3 and TABLE 4, respectively.
Note:- MIC50 or MIC90 represents the concentration of tested
active compound at which 50% or 90% of the total numbers of the bacterial
strains tested were inhibited from their growth. DKB denotes dibekacin,
(§2) Minimum growth inhibitory concentrations (MIC) of each of 2"-amino-5,2"-dideoxy-5-epi-fluoroarbekacin (Compound XVIa) and 2"-amino-5,2"-dideoxy-5-epi-aminoarbekacin (Compound XVIb) against various bacteria (18 strains) and against clinically isolated strains of MRSA (50 strains) were determined by standard serial dilution method on Muller-Hinton's agar medium (as estimated after cultivation at 27° C. for 18 hours), and the test results obtained are shown in TABLE 5 and TABLE 6, respectively.

In a further data set the test system is Bacillus subtilis PCI219. In words: MIC by standard serial dilution method on Muller-Hinton's agar. It is filed as cell-based. The settings on record: Table 3, 27° C., 18 hours. The method, then:
as §1, §2

The subject of another data set is E. coli JR66/W677. The description is as above. It is filed as cell-based. The settings on record: Escherichia coli, JR66/W677, 18 h. The procedure:
as §1, §2

For the next data set, the system named is E. coli K-12 LA290 R55. Described as above. It is filed as cell-based. The settings on record: Escherichia coli, K12LA290R55, 18 h. The procedure: as §1, §2
The next data set concerns E. coli K-12 ML1629. Described as above. It is filed as cell-based. The note with it: Escherichia coli, K12ML1629; Table 3; 27° C., 18 hours; read-out: MIC. The procedure: as §1, §2
Another data set has as its system Escherichia coli NIHJ. The data set is described as above. It is filed as cell-based. The settings on record: Table 3, 27° C., 18 hours. The method, then: as §1, §2
Data set [2] concerns Klebsiella pneumoniae PCI602. Described as above. The note with it: PCI602, 18 h. The format is cell-based. The procedure: as §1, §2
The next data set relates to P. aeruginosa H9. The description is as above. The format is cell-based. The settings on record: Pseudomonas aeruginosa, H9; Table 3; 27° C., 18 hours; read-out: MIC. The procedure: as §1, §2
The next data set relates to P. aeruginosa PST1. The data set is described as above. The format is cell-based. The settings on record: Pseudomonas aeruginosa, Table 3, 27° C., 18 hours. The procedure:
as §1, §2

The test system of another data set is P. aeruginosa TI-13. Described as above. The note with it: Pseudomonas aeruginosa, TI13, 18 h. The format is cell-based. The procedure: as §1, §2
The subject of another data set is Proteus vulgaris OX19. Described as above. It is filed as cell-based. The note with it: OX19, Table 3, 27° C., 18 hours, read-out: MIC. The procedure: as §1, §2
Data set [3] relates to Providencia rettgeri GN311. Described as above. The format is cell-based. The settings on record: GN311, Table 3, 27° C., 18 hours, read-out: MIC. The procedure: as §1, §2
Data set [4] has as its system Pseudomonas aeruginosa A3. Described as above. The format is cell-based. The settings on record: A3, Table 3, 27° C., 18 hours, read-out: MIC. The method, then: as §1, §2
In the next data set the test system is S. aureus Smith. The data set is described as above. The format is cell-based. The settings on record: Staphylococcus aureus; Table 3; 27° C., 18 hours. The method, then: as §1, §2
The next data set concerns S. epidermidis 109. Described as above. The format is cell-based. The note with it: Staphylococcus epidermidis, 109; Table 3; 27° C., 18 hours; read-out: MIC. The method, then:
as §1, §2

The subject of a further data set is Salmonella typhi T-63. The data set is described as above. It is filed as cell-based. The note with it: Salmonella enterica, Table 3, 27° C., 18 hours. The method, then:
as §1, §2

A further data set concerns Serratia marcescens. Described as above. The format is cell-based. The settings on record: Table 3, 27° C., 18 hours, read-out: MIC. The procedure: as §1, §2
Data set [5] relates to Shigella dysenteriae JSI1910. The description is as above. It is filed as cell-based. The settings on record: JSI1910, 18 h. The procedure:
as §1, §2

Data set [6] deals with Staphylococcus aureus FDA209P. Described as above. The note with it: Table 3, 27° C., 18 hours. The format is cell-based. The method, then:
as §1, §2

The subject of a further data set is B. cereus ATCC10702. Described as above. The settings on record: Bacillus cereus, ATCC10702; Table 3; 27° C., 18 hours; read-out: MIC. It is filed as cell-based. The procedure: as §1
The subject of another data set is E. coli K-12 ML1410. Described as above. The note with it: Escherichia coli, K12ML1410; Table 3; 27° C., 18 hours. The format is cell-based. The procedure:
as §1

A short description of data set [7]: Acute toxicity, single intravenous administration to mice. It is filed as in vivo. The settings on record: mouse, in vivo; single intravenous administration; mice (ICR-strain, 4 weeks old, female); observations for two weeks; read-out: LD50. From the text:
50% Lethal dosages (LD50, observations for two weeks) of the new compounds of this invention as estimated upon single intravenous administration to mice (ICR-strain, 4 weeks old, female) are as follows:
50% Lethal dosages (LD50, observations for two weeks) of the new compounds of general formula (XVI) according to the seventh aspect of this invention as estimated upon single intravenous administration to mice (ICR-strain, 4 weeks old, female) are as follows: […]

The nature of another data set: Solubility in water. It is filed as physicochemical.

In brackets after ≈: the same amount, converted by molar mass. Where two headings read alike, the source gives them in different places.

The MIC50 is the lowest concentration that inhibits either 50% of growth or 50% of the strains tested, depending on the study. For orientation: MIC90 means an inhibitory concentration at the 90% level, which refers to growth in some studies and to a panel of isolates in others. For `NC[C@@H]1CC[C@@H](N)[C@@H](O[C@H]2[C@H](O)[C@@H](O[C@H]3O[C@H](CO)[C@@H](O)[C@H](N)[C@H]3O)[C@H](N)C[C@@H]2N)O1` [DKB, 3',4'-dideoxykanamycin B, reference compound], the MIC50 in [1] (50% of the 50 MRSA strains inhibited, 27° C., 18 hours, read-out: MIC50) came to 50 µg/mL (≈ 111 µM). For the same compound, the MIC90 in data set [1] (27° C., 18 hours) was > 100 µg/mL.
By MIC is commonly meant the lowest concentration that inhibits growth of the organism. For orientation: LD50 means the dose at which mortality reaches 50%. As for `NC[C@@H]1CC[C@@H](N)[C@@H](O[C@H]2C[C@@H](O[C@H]3O[C@H](CO)[C@@H](O)[C@H](N)[C@H]3N)[C@H](N)C[C@@H]2N)O1` [Compound IIb, 2"-Amino-5,2"-dideoxydibekacin], the MIC in the data set with Bacillus subtilis PCI219 was ≤ 0.2 µg/mL; in the data set on E. coli JR66/W677, 6.25 µg/mL (≈ 14.4 µM); against E. coli K-12 LA290 R55, 3.13 µg/mL (≈ 7.2 µM); in the data set with E. coli K-12 ML1629, 6.25 µg/mL (≈ 14.4 µM); in the data set on Escherichia coli NIHJ, 1.56 µg/mL (≈ 3.59 µM); in data set [2] it was 3.13 µg/mL (≈ 7.2 µM). For the same compound, the MIC in the data set on P. aeruginosa H9 amounted to 12.5 µg/mL (≈ 28.8 µM); in the data set with P. aeruginosa PST1 it was 100 µg/mL (≈ 230 µM); against P. aeruginosa TI-13 it was 3.13 µg/mL (≈ 7.2 µM); in the data set with Proteus vulgaris OX19 it was 1.56 µg/mL (≈ 3.59 µM); in data set [3], 1.56 µg/mL (≈ 3.59 µM); in [4], 0.78 µg/mL (≈ 1.8 µM). Moreover, the MIC in the data set with S. aureus Smith is ≤ 0.2 µg/mL; with S. epidermidis 109 it was 0.78 µg/mL (≈ 1.8 µM); in the data set with Salmonella typhi T-63 it was 3.13 µg/mL (≈ 7.2 µM); in the data set with Serratia marcescens, 25 µg/mL (≈ 57.5 µM); in data set [5], 6.25 µg/mL (≈ 14.4 µM); in [6], 0.39 µg/mL (≈ 0.898 µM). The MIC in the data set with B. cereus ATCC10702 is 1.56 µg/mL (≈ 3.59 µM); in the data set on E. coli K-12 ML1410, 3.13 µg/mL (≈ 7.2 µM); in data set [1] (range over 50 clinically isolated strains of MRSA, 27° C., 18 hours, read-out: Antibacterial MIC spectra), 0.78 to 25 µg/mL (≈ 1.8 to 57.5 µM). The MIC50 in data set [1] (MRSA, 18 h) came to 3.13 µg/mL (≈ 7.2 µM). Also, in data set [1] (27° C., 18 hours), the MIC90 amounted to 25 µg/mL (≈ 57.5 µM). In addition, in data set [7], the LD50 at 336 h lay within 50 to 100 mg/kg. The Solubility result in the data set “Solubility in water” is “easily soluble in water”.
